Earlier results, collected in patent US20040131704A1, “A method of organic and all natural treatment, prevention and relief of diaper dermatitis and other related skin irritations” (priority 2003, published 2004).

What was measured:
[1] = relative activity of triterpenoids
[2] = topical application of Lavender oil
[3] = system: 18 strains of gram positive and gram-negative bacteria
epithelial formations = details: aqueous solution in strengths of 0.30 percent

Compound: faradoil monoester
- anti-inflammatory activity [1]: most relevant principle for the activity of the drug

Compound: CC1(C)CC[C@]2(C)CC[C@]3(C)C(=CC[C@@H]4[C@@]5(C)CC[C@H](O)C(C)(C)[C@@H]5CC[C@]43C)[C@@H]2C1 [beta-amyrin]
- anti-inflammatory activity [1]: less active than the free diol

Compound: C=C1CC[C@]2(C)CC[C@]3(C)[C@H](CC[C@@H]4[C@@]5(C)CC[C@H](O)C(C)(C)[C@@H]5CC[C@]43C)[C@H]2[C@@H]1C [taraxasterol]
- anti-inflammatory activity [1]: less active than the free diol

Compound: CC1=CCC2(C)CCC3(C)C(CCC4C5(C)CCC(O)C(C)(C)C5CCC43C)C2C1C (stereo not shown) [psi-taraxzsterol]
- anti-inflammatory activity [1]: less active than the free diol

Compound: C=CC(C)(O)CCC=C(C)C (stereo not shown) [Linalool]
- time of peak in the blood [2]: 19 min
- time to detection in the blood [2]: five
- number of strains with antibacterial activity [3]: 17 out of 18 strains

Compound: CC12CCC(CC1)C(C)(C)O2 [cineole]
- number of strains with antibacterial activity [3]: 16 out of 18 strains

Compound: CC1=CC[C@@]2(C)[C@H]([C@@H]1C)[C@H]1CC[C@@H]3[C@@]4(C)CC[C@H](O)C(C)(C)[C@@H]4CC[C@@]3(C)[C@]1(C)C[C@@H]2O [faradiol]
- anti-inflammatory activity [1]: most active of the tested compounds and equals indomethacian in activity

Compound: NC(=O)NC1NC(=O)NC1=O (stereo not shown) [Allantoin]
- action in strengthening epithelial formations (epithelial formations): powerful action

Compound: C=CC(C)(CCC=C(C)C)OC(C)=O (stereo not shown) [linalyl acetate]
- time of peak in the blood [2]: 19 min
- time to detection in the blood [2]: five

Compound: C=C(C)[C@@H]1CC[C@]2(C)CC[C@]3(C)[C@H](CC[C@@H]4[C@@]5(C)CC[C@H](O)C(C)(C)[C@@H]5CC[C@]43C)[C@@H]12 [lupeol]
- anti-inflammatory activity [1]: less active than the free diol
